Data reported in article PMC3796470, “BdorCSP2 Is Important for Antifeed and Oviposition-Deterring Activities Induced by Rhodojaponin-III against Bactrocera dorsalis” (PLoS ONE, 2013).

Assays:
[1] = target: T1, BdorCSP2 (Bactrocera dorsalis, UniProt S5TKX2); assay: fluorescent probe titration with Scatchard analysis; format: binding
T1 construct: gene CSP2; mature BdorCSP2 (signal peptide removed), recombinant from E. coli BL21 (DE3), His-tag-removed; GenBank KC897022
T1 sequence (S5TKX2 23-156): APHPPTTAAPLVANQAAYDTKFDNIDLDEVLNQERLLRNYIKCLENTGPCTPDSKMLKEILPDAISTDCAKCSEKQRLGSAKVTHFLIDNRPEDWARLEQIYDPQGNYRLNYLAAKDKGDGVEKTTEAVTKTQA

[2] = target: T1, BdorCSP2; assay: competitive fluorescence binding assay, displacement of 1-NPN

Q: Which Kd [1] does the source give for `c1ccc(Nc2cccc3ccccc23)cc1` [N-phenyl-1-naphthylamine] here?
A: Its Kd is 2.71 µM.

Q: For `CC1(C)[C@H]2O[C@H]2[C@H]2[C@](C)(O)[C@@H]3CC[C@@H]4[C@@H](O)[C@@]3(C[C@@H](O)[C@@]21O)C[C@@]4(C)O` [Rhodojaponin-III], which Kd [2] is on record?
A: Its Kd is 34.6 µM.
